Test results published in ChEMBL document CHEMBL4765407, “Design, synthesis and high antitumor potential of new unsymmetrical bisacridine derivatives towards human solid tumors, specifically pancreatic cancers and their unique ability to stabilize DNA G-quadruplexes” (Eur J Med Chem, 2020).

Assays:
DU-145 [1] = test: Cytotoxicity against human DU-145 cells assessed as reduction in cell viability measured after 72 hrs by SRB assay; type: functional, cell-based; conditions: DU-145, 72 h
PC-3 = test: Cytotoxicity against human PC-3 cells assessed as reduction in cell viability measured after 72 hrs by SRB assay; type: functional, cell-based; conditions: PC-3, 72 h
HT-29 = test: Cytotoxicity against human HT-29 cells assessed as reduction in cell viability measured after 72 hrs by SRB assay; type: functional, cell-based; conditions: HT-29, 72 h
NCI-H460 [2] = test: Cytotoxicity against human NCI-H460 cells assessed as reduction in cell viability measured after 72 hrs by SRB assay; type: functional, cell-based; conditions: NCI-H460, 72 h
HCT-116 [3] = test: Cytotoxicity against human HCT-116 cells assessed as reduction in cell viability measured after 72 hrs by SRB assay; type: functional, cell-based; conditions: HCT-116, 72 h
UMUC3 = test: Cytotoxicity against human UMUC3 cells assessed as reduction in cell viability measured after 72 hrs by SRB assay; type: functional, cell-based; conditions: UMUC3, 72 h
MCF7 = test: Cytotoxicity against human MCF7 cells assessed as reduction in cell viability measured after 72 hrs by SRB assay; type: functional, cell-based; conditions: MCF7, 72 h
MDA-MB-231 [4] = test: Cytotoxicity against human MDA-MB-231 cells assessed as reduction in cell viability measured after 72 hrs by SRB assay; type: functional, cell-based; conditions: MDA-MB-231, 72 h
PANC-1 [5] = test: Cytotoxicity against human PANC-1 cells assessed as reduction in cell viability measured after 72 hrs by SRB assay; type: functional, cell-based; conditions: PANC-1, 72 h
MIA PaCa-2 = test: Cytotoxicity against human MIA PaCa-2 cells assessed as reduction in cell viability measured after 72 hrs by SRB assay; type: functional, cell-based; conditions: MIA PaCa-2, 72 h
BXPC-3 = test: Cytotoxicity against human BXPC-3 cells assessed as reduction in cell viability measured after 72 hrs by SRB assay; type: functional, cell-based; conditions: BXPC-3, 72 h
ASPC1 = test: Cytotoxicity against human ASPC1 cells assessed as reduction in cell viability measured after 72 hrs by SRB assay; type: functional, cell-based; conditions: ASPC1, 72 h
Capan-2 = test: Cytotoxicity against human Capan-2 cells assessed as reduction in cell viability measured after 72 hrs by SRB assay; type: functional, cell-based; conditions: Capan-2, 72 h
PANC-1 [6] = test: Antitumour activity against human PANC-1 cells xenografted in Crl:Nu-Foxnl nu mouse assessed as inhibition of tumour growth at total effective dose of 160 mg/kg, iv measured on day 26; type: functional; conditions: PANC-1, iv, 624 h, time 26 day, read-out: TGI
HCT-116 [7] = test: Antitumour activity against human HCT-116 cells xenografted in Crl:Nu-Foxnl nu mouse assessed as inhibition of tumour growth at total effective dose of 120 mg/kg, iv measured on day 15; type: functional; conditions: HCT-116, iv, 360 h, time 15 day, read-out: TGI
MDA-MB-231 [8] = test: Antitumour activity against human MDA-MB-231 cells xenografted in Crl:Nu-Foxnl nu mouse assessed as inhibition of tumour growth at total effective dose of 40 mg/kg, iv measured on day 39; type: functional; conditions: MDA-MB-231, iv, 936 h, time 39 day, read-out: TGI
Quadruplex DNA [9] = test: Stabilization of 5'-FAM/3'-TAMRA labeled c-Myc promoter G4 quadruplex DNA FPu18 (unknown origin) assessed as change in melting temperature at 10 microM measured after 15 mins by FRET assay; type: nucleic-acid assay
Quadruplex DNA [10] = test: Stabilization of 5'-FAM/3'-TAMRA labeled telomeric G4 quadruplex DNA F21T (unknown origin) assessed as change in melting temperature at 10 microM measured after 15 mins by FRET assay; type: nucleic-acid assay
Quadruplex DNA [11] = test: Stabilization of 5'-FAM/3'-TAMRA labeled K-Ras G4 quadruplex DNA (unknown origin) assessed as change in melting temperature at 10 microM measured after 15 mins by FRET assay; type: nucleic-acid assay
[12] = Stabilization of ds 5'-FAM-d(TATAGCTATA-HEG-TATAGCTATA)-TAMRA-3' (unknown origin) assessed as change in melting temperature at 10 microM measured after 15 mins by FRET assay; conditions: Homo sapiens
LNCaP = test: Cytotoxicity against human LNCaP cells assessed as reduction in cell viability measured after 72 hrs by SRB assay; type: functional, cell-based
W256 [13] = test: Antitumour activity against Walker 256 adenocarcinoma cells implanted in Wistar rat assessed as increase in animal survival rate by measuring T/C ratio at 5 mg/kg, ip qd for 3 days administered on day 3,4,5 after tumor cell transplantation; type: functional; conditions: time 3 day
NCI-H460 [14] = test: Antitumour activity against human NCI-H460 cells xenografted in Crl:Nu-Foxnl nu mouse assessed as inhibition of tumour growth at total effective dose of 60 mg/kg, ip measured on day 14; type: functional; conditions: 336 h, time 14 day, read-out: TGI
W256 [15] = test: Antitumour activity against Walker 256 adenocarcinoma cells implanted in Wistar rat assessed as increase in animal survival rate by measuring T/C ratio at 2 mg/kg, ip qd for 3 days administered on day 3,4,5 after tumor cell transplantation; type: functional; conditions: time 3 day
DU-145 [16] = test: Antitumour activity against human DU-145 cells xenografted in Crl:Nu-Foxnl nu mouse assessed as inhibition of tumour growth at total effective dose of 32 mg/kg, iv measured on day 63; type: functional; conditions: DU-145, iv, 1512 h, time 63 day, read-out: TGI
DU-145 [17] = test: Antitumour activity against human DU-145 cells xenografted in Crl:Nu-Foxnl nu mouse assessed as inhibition of tumour growth at total effective dose of 8 mg/kg, iv measured on day 33; type: functional; conditions: DU-145, iv, 792 h, time 33 day, read-out: TGI
NCI-H460 [18] = test: Antitumour activity against human NCI-H460 cells xenografted in Crl:Nu-Foxnl nu mouse assessed as inhibition of tumour growth at total effective dose of 10 mg/kg, iv measured on day 21; type: functional; conditions: 504 h, time 21 day, read-out: TGI
MDA-MB-231 [19] = test: Antitumour activity against human MDA-MB-231 cells xenografted in Crl:Nu-Foxnl nu mouse assessed as inhibition of tumour growth at total effective dose of 8 mg/kg, iv measured on day 50; type: functional; conditions: MDA-MB-231, iv, 1200 h, time 50 day, read-out: TGI
PANC-1 [20] = test: Antitumour activity against human PANC-1 cells xenografted in Crl:Nu-Foxnl nu mouse assessed as inhibition of tumour growth at total effective dose of 120 mg/kg, iv measured on day 51; type: functional; conditions: PANC-1, iv, 1224 h, time 51 day, read-out: TGI

Question: Which results are given for `Cc1ccc([N+](=O)[O-])c2c(NCCCN3CCN(CCCNc4ccc5ncn6c7ccc(O)cc7c(=O)c4c56)CC3)c3ccccc3nc12`?
Answer: IC50 (DU-145 [1]): 67 nM; IC50 (PC-3): 130 nM; IC50 (HT-29): 237 nM; IC50 (NCI-H460 [2]): 74 nM; IC50 (HCT-116 [3]): 51 nM; IC50 (UMUC3): 35 nM; IC50 (MCF7): 244 nM; IC50 (MDA-MB-231 [4]): 17 nM; IC50 (PANC-1 [5]): 42 nM; IC50 (MIA PaCa-2): 38 nM; IC50 (BXPC-3): 354 nM; IC50 (ASPC1): 343 nM; IC50 (Capan-2): 68 nM; inhibition in vivo at 160 mg/kg (PANC-1 [6]): 61%; inhibition in vivo at 120 mg/kg (HCT-116 [7]): 4%; inhibition in vivo at 40 mg/kg (MDA-MB-231 [8]): 12%; ΔTm (Quadruplex DNA [9]): 21.3 °C; ΔTm (Quadruplex DNA [10]): 16.4 °C; ΔTm (Quadruplex DNA [11]): 18.8 °C; ΔTm [12]: 4.4 °C

Question: With `Cc1ccc([N+](=O)[O-])c2c(NCCCNCCCNc3ccc(C)c4[nH]c5ccccc5c(=O)c34)c3ccccc3nc12` as the compound, how does the IC50 (DU-145 [1]) read?
Answer: 129 nM

Question: What about the IC50 (LNCaP) of the same compound?
Answer: 213 nM

Question: What about the IC50 (HT-29) of the same compound?
Answer: 1300 nM

Question: And the IC50 (NCI-H460 [2])?
Answer: 67 nM

Question: What about the IC50 (HCT-116 [3]) of the same compound?
Answer: 85 nM

Question: What about the IC50 (UMUC3) of the same compound?
Answer: 105 nM

Question: And the IC50 (PANC-1 [5])?
Answer: 162 nM

Question: What about the T/C (W256 [13]) of the same compound?
Answer: 1300%

Question: What about the inhibition in vivo at 60 mg/kg (NCI-H460 [14]) of the same compound?
Answer: 25%

Question: Which results are given for `Cc1ccc(NCCCN2CCN(CCCNc3c4ccccc4nc4cccc([N+](=O)[O-])c34)CC2)c2c(=O)c3cc(O)ccc3[nH]c12`?
Answer: IC50 (DU-145 [1]): 20 nM; IC50 (LNCaP): 84 nM; IC50 (PC-3): 48 nM; IC50 (HT-29): 23 nM; IC50 (NCI-H460 [2]): 5 nM; IC50 (HCT-116 [3]): 19 nM; IC50 (UMUC3): 9.5 nM; IC50 (MCF7): 113 nM; IC50 (MDA-MB-231 [4]): 28 nM; IC50 (PANC-1 [5]): 27 nM; IC50 (MIA PaCa-2): 16 nM; IC50 (BXPC-3): 59 nM; IC50 (ASPC1): 79 nM; T/C (W256 [15]): 250%; inhibition in vivo at 32 mg/kg (DU-145 [16]): 90%; inhibition in vivo at 8 mg/kg (DU-145 [17]): 51%; inhibition in vivo at 10 mg/kg (NCI-H460 [18]): 42%; inhibition in vivo at 8 mg/kg (MDA-MB-231 [19]): 30%; inhibition in vivo at 120 mg/kg (PANC-1 [20]): 75%; ΔTm (Quadruplex DNA [9]): 17.9 °C; ΔTm (Quadruplex DNA [10]): 7.3 °C; ΔTm (Quadruplex DNA [11]): 27.6 °C; ΔTm [12]: 1.7 °C
